{"source": "patent US5591438A", "about": "“Natamycin recovery” (Bio-Technical Resources L.P., priority 1994, dated 1997)", "format_in_all_cases": "physicochemical", "key": {"[1]": {"assay": "Natamycin methyl ester formation in methanol (stability of natamycin in acidified methanol)", "method": "Formation of natamycin methyl ester, an undesired by-product, depends on the pH, the natamycin-methanol contact time, and the temperature (see Table 1). It is important that this step be carried out at a temperature of about 0°-25° C., since formation of natamycin methyl ester and other undesirable by-products is minimized. The higher the temperature or the longer the contact time, the greater the by-product production at a given pH. To avoid excessive natamycin methyl ester formation at 15°-25° C., short contact times, i.e., 0.5 hr or less, should be used. At about […], the extraction time should not exceed about 1.5 hr. An extraction temperature of about 0°-15° C. is preferred.\nNatamycin Methyl Ester Formation in Methanol"}, "physchem [2]": {"assay": "physchem", "text": "Since water content of the extraction medium depends on the amount of water in the feed stream, it is desirable to remove as much water as possible from the feed stream before Step 1. If the feed stream contains about 70% by volume water, about three times as much methanol is required than when starting with a substantially dry feed stream. If the feed stream contains about 40% by volume water, about twice as much methanol is required.\nThe pH depends to some extent on the water content of the extraction medium and the yield desired. To obtain a precipitation yield of about 90% or more, the natamycin concentration in the extraction medium should be about 40 g/L. In the absence of water this requires a pH of about 4.5. At about 30% water/70% methanol (by volume) this requires a pH of about 2.5 (Table 2).\nSolubility of Natamycin in Methanol and Methanol/Water"}, "physchem [3]": {"assay": "physchem", "settings": "methanol/cacl2, organic solvent or mixture, Solubility of Natamycin in Methanol/CaCl2 Extractant", "text": "To precipitate a high percentage of the natamycin, the water content of the extraction liquor should be increased to at least 50% by volume. Table 3 indicates the solubility of natamycin in a methanol/water/calcium chloride solution as a function of water content.\nSolubility of Natamycin in Methanol/CaCl2 *\nExtractant at Various Water Concentrations"}, "[4]": {"assay": "Ester formation in methanol with 40 g/L CaCl2 (stability of natamycin)", "settings": "for Methyl Ester (% of product) / Natamycin (concentration in methanol with CaCl2): methanol with 40 g/L CaCl2", "method": "This process can be run at pH 2-9, preferably at pH 6-8. If the pH is low, shorter extraction times should be used because acidic conditions promote natamycin methyl ester formation. (See Table 4) If the pH is above 6, ester formation is slower. Any reasonable temperature may be used (i.e. 20°-30° C.).\nEster Formation in Methanol with 40 g/L CaCl2"}}}
{"smiles": "C[C@@H]1C/C=C/C=C/C=C/C=C/[C@H](O[C@@H]2O[C@H](C)[C@@H](O)[C@H](N)[C@@H]2O)C[C@@H]2O[C@](O)(C[C@@H](O)C[C@H]3O[C@@H]3/C=C/C(=O)O1)C[C@H](O)[C@H]2C(=O)O", "note": "[Natamycin, natamycin]", "values": [{"measurement": "Methyl Ester (% by weight of product)", "setting": "[1]; 4 °C, pH 2.4, 0 hr", "result": "0.4 % by weight of product"}, {"measurement": "Natamycin (concentration in methanol)", "setting": "[1]; 4 °C, pH 2.4, 0 hr", "result": 42, "unit": "g/L"}, {"measurement": "Methyl Ester (% by weight of product)", "setting": "[1]; 4 °C, pH 2.4, 2 hr", "result": "1.3 % by weight of product"}, {"measurement": "Natamycin (concentration in methanol)", "setting": "[1]; 4 °C, pH 2.4, 2 hr", "result": 42, "unit": "g/L"}, {"measurement": "Methyl Ester (% by weight of product)", "setting": "[1]; 4 °C, pH 2.4, 8.5 hr", "result": "2.7 % by weight of product"}, {"measurement": "Natamycin (concentration in methanol)", "setting": "[1]; 4 °C, pH 2.4, 8.5 hr", "result": 39, "unit": "g/L"}, {"measurement": "Methyl Ester (% by weight of product)", "setting": "[1]; 4 °C, pH 2.4, 19 hr", "result": "5.2 % by weight of product"}, {"measurement": "Natamycin (concentration in methanol)", "setting": "[1]; 4 °C, pH 2.4, 19 hr", "result": 37, "unit": "g/L"}, {"measurement": "Methyl Ester (% by weight of product)", "setting": "[1]; 23 °C, pH 2.4, 0 hr", "result": "0 % by weight of product"}, {"measurement": "Natamycin (concentration in methanol)", "setting": "[1]; 23 °C, pH 2.4, 0 hr", "result": 44, "unit": "g/L"}, {"measurement": "Methyl Ester (% by weight of product)", "setting": "[1]; 23 °C, pH 2.4, 1 hr", "result": "3.9 % by weight of product"}, {"measurement": "Natamycin (concentration in methanol)", "setting": "[1]; 23 °C, pH 2.4, 1 hr", "result": 42, "unit": "g/L"}, {"measurement": "Methyl Ester (% by weight of product)", "setting": "[1]; 23 °C, pH 2.4, 2 hr", "result": "7.3 % by weight of product"}, {"measurement": "Natamycin (concentration in methanol)", "setting": "[1]; 23 °C, pH 2.4, 2 hr", "result": 41, "unit": "g/L"}, {"measurement": "Methyl Ester (% by weight of product)", "setting": "[1]; 23 °C, pH 2.4, 3 hr", "result": "9.7 % by weight of product"}, {"measurement": "Natamycin (concentration in methanol)", "setting": "[1]; 23 °C, pH 2.4, 3 hr", "result": 38, "unit": "g/L"}, {"measurement": "Methyl Ester (% by weight of product)", "setting": "[1]; 23 °C, pH 3.2, 0 hr", "result": "0 % by weight of product"}, {"measurement": "Natamycin (concentration in methanol)", "setting": "[1]; 23 °C, pH 3.2, 0 hr", "result": 38, "unit": "g/L"}, {"measurement": "Methyl Ester (% by weight of product)", "setting": "[1]; 23 °C, pH 3.2, 1 hr", "result": "2.3 % by weight of product"}, {"measurement": "Natamycin (concentration in methanol)", "setting": "[1]; 23 °C, pH 3.2, 1 hr", "result": 38, "unit": "g/L"}, {"measurement": "Methyl Ester (% by weight of product)", "setting": "[1]; 23 °C, pH 3.2, 2 hr", "result": "3.9 % by weight of product"}, {"measurement": "Natamycin (concentration in methanol)", "setting": "[1]; 23 °C, pH 3.2, 2 hr", "result": 37, "unit": "g/L"}, {"measurement": "Methyl Ester (% by weight of product)", "setting": "[1]; 23 °C, pH 3.2, 4 hr", "result": "7.4 % by weight of product"}, {"measurement": "Natamycin (concentration in methanol)", "setting": "[1]; 23 °C, pH 3.2, 4 hr", "result": 34, "unit": "g/L"}, {"measurement": "Methyl Ester (% by weight of product)", "setting": "[1]; 23 °C, pH 3.2, 6 hr", "result": "9.2 % by weight of product"}, {"measurement": "Natamycin (concentration in methanol)", "setting": "[1]; 23 °C, pH 3.2, 6 hr", "result": 32, "unit": "g/L"}, {"measurement": "Methyl Ester (% by weight of product)", "setting": "[1]; 23 °C, pH 3.2, 16 hr", "result": "14 % by weight of product"}, {"measurement": "Natamycin (concentration in methanol)", "setting": "[1]; 23 °C, pH 3.2, 16 hr", "result": 23, "unit": "g/L"}, {"measurement": "Methyl Ester (% by weight of product)", "setting": "[1]; 23 °C, pH 4.0, 0 hr", "result": "0 % by weight of product"}, {"measurement": "Natamycin (concentration in methanol)", "setting": "[1]; 23 °C, pH 4.0, 0 hr", "result": 41, "unit": "g/L"}, {"measurement": "Methyl Ester (% by weight of product)", "setting": "[1]; 23 °C, pH 4.0, 2 hr", "result": "2.3 % by weight of product"}, {"measurement": "Natamycin (concentration in methanol)", "setting": "[1]; 23 °C, pH 4.0, 2 hr", "result": 40, "unit": "g/L"}, {"measurement": "Methyl Ester (% by weight of product)", "setting": "[1]; 23 °C, pH 4.0, 4 hr", "result": "3.7 % by weight of product"}, {"measurement": "Natamycin (concentration in methanol)", "setting": "[1]; 23 °C, pH 4.0, 4 hr", "result": 39, "unit": "g/L"}, {"measurement": "solubility in methanol", "setting": "physchem [2]", "result": "excellent solubility"}, {"measurement": "solubility in the extraction medium after acid addition", "setting": "physchem [2]", "result": "highly soluble"}, {"measurement": "solubility of natamycin in the extraction medium", "setting": "physchem [2]", "result": "decreases as the water increases"}, {"measurement": "solubility", "setting": "physchem [2]; methanol, pH 2, organic solvent or mixture", "result": 94, "unit": "mg/mL"}, {"measurement": "solubility", "setting": "physchem [2]; methanol, pH 3.8, organic solvent or mixture", "result": 78, "unit": "mg/mL"}, {"measurement": "solubility", "setting": "physchem [2]; methanol, pH 4.5, organic solvent or mixture", "result": 50, "unit": "mg/mL"}, {"measurement": "solubility", "setting": "physchem [2]; methanol, pH 7, organic solvent or mixture", "result": 6, "unit": "mg/mL"}, {"measurement": "solubility", "setting": "physchem [2]; methanol/water, pH 2.4, organic solvent or mixture", "result": 55, "unit": "mg/mL"}, {"measurement": "solubility", "setting": "physchem [2]; methanol/water, pH 3.3, organic solvent or mixture", "result": 18, "unit": "mg/mL"}, {"measurement": "solubility", "setting": "physchem [2]; methanol/water, pH 7, organic solvent or mixture", "result": 4, "unit": "mg/mL"}, {"measurement": "solubility", "setting": "physchem [3]", "result": 91, "unit": "mg/mL"}, {"measurement": "Methyl Ester (% of product)", "setting": "[4]; 5 °C, pH 4.4, 0 hr", "result": "0 % of product"}, {"measurement": "Natamycin (concentration in methanol with CaCl2)", "setting": "[4]; 5 °C, pH 4.4, 0 hr", "result": 60, "unit": "g/L"}, {"measurement": "Methyl Ester (% of product)", "setting": "[4]; 5 °C, pH 4.4, 8 hr", "result": "0.5 % of product"}, {"measurement": "Natamycin (concentration in methanol with CaCl2)", "setting": "[4]; 5 °C, pH 4.4, 8 hr", "result": 60, "unit": "g/L"}, {"measurement": "Methyl Ester (% of product)", "setting": "[4]; 23 °C, pH 4.4, 0 hr", "result": "0 % of product"}, {"measurement": "Natamycin (concentration in methanol with CaCl2)", "setting": "[4]; 23 °C, pH 4.4, 0 hr", "result": 72, "unit": "g/L"}, {"measurement": "Methyl Ester (% of product)", "setting": "[4]; 23 °C, pH 4.4, 6 hr", "result": "5.0 % of product"}, {"measurement": "Natamycin (concentration in methanol with CaCl2)", "setting": "[4]; 23 °C, pH 4.4, 6 hr", "result": 67, "unit": "g/L"}, {"measurement": "Methyl Ester (% of product)", "setting": "[4]; 23 °C, pH 5.3, 0 hr", "result": "0 % of product"}, {"measurement": "Natamycin (concentration in methanol with CaCl2)", "setting": "[4]; 23 °C, pH 5.3, 0 hr", "result": 51, "unit": "g/L"}, {"measurement": "Methyl Ester (% of product)", "setting": "[4]; 23 °C, pH 5.3, 20 hr", "result": "2.4 % of product"}, {"measurement": "Natamycin (concentration in methanol with CaCl2)", "setting": "[4]; 23 °C, pH 5.3, 20 hr", "result": 48, "unit": "g/L"}, {"measurement": "Methyl Ester (% of product)", "setting": "[4]; 23 °C, pH 6.1, 0 hr", "result": "0 % of product"}, {"measurement": "Natamycin (concentration in methanol with CaCl2)", "setting": "[4]; 23 °C, pH 6.1, 0 hr", "result": 51, "unit": "g/L"}, {"measurement": "Methyl Ester (% of product)", "setting": "[4]; 23 °C, pH 6.1, 20 hr", "result": "1.1 % of product"}, {"measurement": "Natamycin (concentration in methanol with CaCl2)", "setting": "[4]; 23 °C, pH 6.1, 20 hr", "result": 49, "unit": "g/L"}, {"measurement": "natamycin methyl ester formation", "setting": "[4]; methanol/CaCl2, pH above 6", "result": "slower"}]}
